Columns and labels:
[1] = molecular target: T1, Serine/threonine-protein kinase TAO1 (Homo sapiens) (UniProt Q7L7X3); assay: Inhibition of TAO1 assessed as residual activity of enzyme at 25 uM
T1 sequence (whole entry): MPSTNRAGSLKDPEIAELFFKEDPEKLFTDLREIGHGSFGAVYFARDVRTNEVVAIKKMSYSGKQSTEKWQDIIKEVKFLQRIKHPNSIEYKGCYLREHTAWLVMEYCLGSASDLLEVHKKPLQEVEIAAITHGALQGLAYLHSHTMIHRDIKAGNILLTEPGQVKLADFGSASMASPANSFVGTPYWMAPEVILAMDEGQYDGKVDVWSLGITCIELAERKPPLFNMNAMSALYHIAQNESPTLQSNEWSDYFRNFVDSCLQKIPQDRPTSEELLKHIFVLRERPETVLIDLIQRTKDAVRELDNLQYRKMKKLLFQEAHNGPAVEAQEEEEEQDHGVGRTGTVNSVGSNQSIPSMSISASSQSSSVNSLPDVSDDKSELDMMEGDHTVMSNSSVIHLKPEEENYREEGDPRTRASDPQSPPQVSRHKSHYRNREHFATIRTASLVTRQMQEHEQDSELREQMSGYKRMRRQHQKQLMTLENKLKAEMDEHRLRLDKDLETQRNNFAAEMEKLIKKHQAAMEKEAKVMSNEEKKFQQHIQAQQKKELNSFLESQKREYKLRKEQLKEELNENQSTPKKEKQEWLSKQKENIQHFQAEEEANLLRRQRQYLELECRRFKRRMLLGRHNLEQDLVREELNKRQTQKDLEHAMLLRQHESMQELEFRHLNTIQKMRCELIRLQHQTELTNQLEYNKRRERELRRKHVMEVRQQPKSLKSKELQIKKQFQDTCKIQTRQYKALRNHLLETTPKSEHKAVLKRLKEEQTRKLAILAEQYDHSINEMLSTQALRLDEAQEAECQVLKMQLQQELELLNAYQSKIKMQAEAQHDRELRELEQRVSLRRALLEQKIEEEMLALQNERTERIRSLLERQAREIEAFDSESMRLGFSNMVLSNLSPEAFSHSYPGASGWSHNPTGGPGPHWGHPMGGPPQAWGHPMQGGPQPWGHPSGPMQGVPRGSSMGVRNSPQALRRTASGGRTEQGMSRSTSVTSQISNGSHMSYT

[2] = molecular target: T2, Cyclin-dependent kinase 5/CDK5 activator 1 (Homo sapiens) (UniProt Q00535+Q15078); assay: Inhibition of CDK5/p25 assessed as residual activity of enzyme at 10 uM; format: protein-complex assay
[3] = molecular target: T2, Cyclin-dependent kinase 5/CDK5 activator 1 (Homo sapiens); assay: Inhibition of CDK5/p25 assessed as residual activity of enzyme at 25 uM; format: protein-complex assay
[4] = molecular target: RAF proto-oncogene serine/threonine-protein kinase (Homo sapiens) (UniProt P04049); assay: Inhibition of c-Raf assessed as residual activity of enzyme at 25 uM
[5] = Neurotoxicity in rat primary cortical neurons assessed as cell survival at 100 uM after 24 hrs by MTT assay; format: toxicity, cell-based; details: cerebral cortex neuron
[6] = Neurotoxicity in rat primary cortical neurons assessed as cell survival at 10 uM after 24 hrs by MTT assay; format: toxicity, cell-based, Cerebral cortex neuron; details: read-out: Activity
[7] = molecular target: T3, Mitogen-activated protein kinase kinase kinase 7 (Homo sapiens) (UniProt O43318); assay: Inhibition of TAK1 assessed as residual activity of enzyme at 25 uM
T3 sequence (whole entry): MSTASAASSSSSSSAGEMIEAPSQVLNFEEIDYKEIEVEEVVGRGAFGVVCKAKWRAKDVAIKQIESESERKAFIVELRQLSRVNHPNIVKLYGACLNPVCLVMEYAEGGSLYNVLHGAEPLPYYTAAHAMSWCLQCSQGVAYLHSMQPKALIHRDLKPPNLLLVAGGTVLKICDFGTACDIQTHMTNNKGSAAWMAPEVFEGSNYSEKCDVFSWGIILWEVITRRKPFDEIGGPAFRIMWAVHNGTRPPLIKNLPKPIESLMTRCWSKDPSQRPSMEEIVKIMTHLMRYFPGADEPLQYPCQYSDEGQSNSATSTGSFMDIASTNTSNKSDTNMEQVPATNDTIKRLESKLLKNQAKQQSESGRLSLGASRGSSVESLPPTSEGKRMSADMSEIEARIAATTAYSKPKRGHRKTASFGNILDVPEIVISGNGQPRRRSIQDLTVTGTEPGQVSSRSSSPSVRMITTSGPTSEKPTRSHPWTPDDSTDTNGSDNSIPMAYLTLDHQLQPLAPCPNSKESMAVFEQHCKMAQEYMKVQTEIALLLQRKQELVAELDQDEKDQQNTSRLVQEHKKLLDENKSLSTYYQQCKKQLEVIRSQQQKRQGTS

[8] = molecular target: T4, Serine/threonine-protein kinase TAO3 (Homo sapiens) (UniProt Q9H2K8); assay: Inhibition of TAO3 assessed as residual activity of enzyme at 10 uM
T4 sequence (whole entry): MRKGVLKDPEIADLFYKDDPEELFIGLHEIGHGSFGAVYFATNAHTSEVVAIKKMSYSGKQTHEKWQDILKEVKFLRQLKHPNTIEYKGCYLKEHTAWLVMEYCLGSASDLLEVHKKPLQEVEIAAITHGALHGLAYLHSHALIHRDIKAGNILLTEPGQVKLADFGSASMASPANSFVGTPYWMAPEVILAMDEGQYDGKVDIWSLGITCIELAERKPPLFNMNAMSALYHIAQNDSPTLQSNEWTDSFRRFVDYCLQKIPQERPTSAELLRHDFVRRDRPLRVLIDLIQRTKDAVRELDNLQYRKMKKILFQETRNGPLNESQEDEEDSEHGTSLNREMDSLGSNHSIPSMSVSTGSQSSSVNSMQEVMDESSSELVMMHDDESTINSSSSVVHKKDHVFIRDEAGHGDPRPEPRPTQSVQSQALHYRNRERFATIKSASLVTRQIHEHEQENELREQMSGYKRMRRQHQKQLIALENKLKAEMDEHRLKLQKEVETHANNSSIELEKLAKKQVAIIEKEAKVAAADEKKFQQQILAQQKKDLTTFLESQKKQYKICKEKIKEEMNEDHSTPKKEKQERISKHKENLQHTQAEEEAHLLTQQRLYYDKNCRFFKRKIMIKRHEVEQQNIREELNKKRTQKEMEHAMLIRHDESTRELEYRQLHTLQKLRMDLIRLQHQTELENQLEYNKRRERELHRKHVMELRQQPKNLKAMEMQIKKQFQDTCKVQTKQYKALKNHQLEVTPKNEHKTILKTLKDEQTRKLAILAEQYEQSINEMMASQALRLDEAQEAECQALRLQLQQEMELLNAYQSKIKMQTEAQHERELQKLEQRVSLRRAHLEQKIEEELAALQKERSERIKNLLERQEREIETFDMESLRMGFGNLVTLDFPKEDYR

[9] = molecular target: Serine/threonine-protein kinase mTOR (Homo sapiens) (UniProt P42345); assay: Inhibition of mTOR assessed as residual activity of enzyme at 10 uM
[10] = molecular target: Leucine-rich repeat serine/threonine-protein kinase 2 (Homo sapiens) (UniProt Q5S007); assay: Inhibition of wild type LRRK2 expressed in mouse SN4741 cells assessed as reduction in hydrogen peroxide-induced neurotoxicity at 10 uM by measuring cell survival after 48 hrs by crystal violet assay relative to control; format: cell-based
Sequence of Leucine-rich repeat serine/threonine-protein kinase 2 (Homo sapiens) (Q5S007 whole entry): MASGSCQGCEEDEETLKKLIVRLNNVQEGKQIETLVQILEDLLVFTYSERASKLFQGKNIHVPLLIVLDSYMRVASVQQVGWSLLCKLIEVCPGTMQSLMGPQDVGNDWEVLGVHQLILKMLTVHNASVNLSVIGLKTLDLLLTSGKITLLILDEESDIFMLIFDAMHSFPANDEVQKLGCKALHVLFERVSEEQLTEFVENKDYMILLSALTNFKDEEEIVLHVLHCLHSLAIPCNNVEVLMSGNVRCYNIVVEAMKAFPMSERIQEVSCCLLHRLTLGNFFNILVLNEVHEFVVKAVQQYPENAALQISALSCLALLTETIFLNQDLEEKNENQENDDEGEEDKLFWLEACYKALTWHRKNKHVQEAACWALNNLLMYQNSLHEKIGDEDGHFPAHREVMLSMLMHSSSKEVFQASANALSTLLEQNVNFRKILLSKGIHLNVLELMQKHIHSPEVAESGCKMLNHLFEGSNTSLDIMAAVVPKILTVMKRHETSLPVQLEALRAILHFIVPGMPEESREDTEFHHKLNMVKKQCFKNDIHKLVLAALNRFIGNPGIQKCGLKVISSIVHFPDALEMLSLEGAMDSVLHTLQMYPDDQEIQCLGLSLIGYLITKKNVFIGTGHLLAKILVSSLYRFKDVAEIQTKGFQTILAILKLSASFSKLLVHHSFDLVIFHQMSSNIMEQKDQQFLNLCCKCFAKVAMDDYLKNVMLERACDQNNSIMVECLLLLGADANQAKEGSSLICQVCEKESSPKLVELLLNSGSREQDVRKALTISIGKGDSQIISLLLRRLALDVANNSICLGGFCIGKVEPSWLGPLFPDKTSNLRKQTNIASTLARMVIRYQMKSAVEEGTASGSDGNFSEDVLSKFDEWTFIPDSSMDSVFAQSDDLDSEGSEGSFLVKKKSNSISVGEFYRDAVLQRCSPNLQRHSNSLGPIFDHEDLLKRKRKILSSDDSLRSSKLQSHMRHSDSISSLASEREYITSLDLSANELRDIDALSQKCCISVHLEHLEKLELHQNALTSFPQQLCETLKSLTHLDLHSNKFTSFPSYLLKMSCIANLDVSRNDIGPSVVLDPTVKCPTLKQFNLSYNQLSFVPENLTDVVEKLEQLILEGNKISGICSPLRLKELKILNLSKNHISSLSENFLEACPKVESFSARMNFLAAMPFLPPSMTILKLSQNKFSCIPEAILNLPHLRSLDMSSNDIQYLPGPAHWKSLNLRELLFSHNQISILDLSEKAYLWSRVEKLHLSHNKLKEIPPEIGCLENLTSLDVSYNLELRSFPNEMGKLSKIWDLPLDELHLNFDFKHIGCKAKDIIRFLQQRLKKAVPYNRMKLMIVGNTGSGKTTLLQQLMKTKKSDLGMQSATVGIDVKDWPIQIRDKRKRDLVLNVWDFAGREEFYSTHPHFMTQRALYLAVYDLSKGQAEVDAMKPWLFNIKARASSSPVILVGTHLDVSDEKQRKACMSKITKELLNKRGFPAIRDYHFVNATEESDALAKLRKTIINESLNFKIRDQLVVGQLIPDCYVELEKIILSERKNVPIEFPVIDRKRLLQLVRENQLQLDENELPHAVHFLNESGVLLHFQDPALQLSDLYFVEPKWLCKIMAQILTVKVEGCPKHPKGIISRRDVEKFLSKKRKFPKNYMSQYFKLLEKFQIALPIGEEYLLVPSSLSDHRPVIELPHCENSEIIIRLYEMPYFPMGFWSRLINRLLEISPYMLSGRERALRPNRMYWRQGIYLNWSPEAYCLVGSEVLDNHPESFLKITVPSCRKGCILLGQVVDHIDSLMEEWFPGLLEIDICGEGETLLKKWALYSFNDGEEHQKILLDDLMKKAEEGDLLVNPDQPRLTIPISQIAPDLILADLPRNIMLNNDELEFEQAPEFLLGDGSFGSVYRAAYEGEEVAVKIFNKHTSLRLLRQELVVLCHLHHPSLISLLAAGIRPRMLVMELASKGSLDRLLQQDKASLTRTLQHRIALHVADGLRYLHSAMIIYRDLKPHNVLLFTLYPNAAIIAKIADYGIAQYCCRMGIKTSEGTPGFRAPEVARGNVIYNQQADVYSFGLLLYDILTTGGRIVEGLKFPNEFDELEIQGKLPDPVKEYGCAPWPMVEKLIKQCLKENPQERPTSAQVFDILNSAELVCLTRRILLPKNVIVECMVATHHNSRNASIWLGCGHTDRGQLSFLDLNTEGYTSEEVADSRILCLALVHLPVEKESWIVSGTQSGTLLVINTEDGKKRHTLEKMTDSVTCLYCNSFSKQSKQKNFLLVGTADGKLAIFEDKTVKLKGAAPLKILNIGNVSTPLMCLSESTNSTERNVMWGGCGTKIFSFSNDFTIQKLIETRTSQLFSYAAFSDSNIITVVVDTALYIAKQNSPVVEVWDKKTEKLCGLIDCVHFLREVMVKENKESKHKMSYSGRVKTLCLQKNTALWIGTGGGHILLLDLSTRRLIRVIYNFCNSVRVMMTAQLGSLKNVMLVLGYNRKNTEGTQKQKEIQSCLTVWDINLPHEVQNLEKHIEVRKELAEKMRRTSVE

T2 sequence (Q00535 whole entry): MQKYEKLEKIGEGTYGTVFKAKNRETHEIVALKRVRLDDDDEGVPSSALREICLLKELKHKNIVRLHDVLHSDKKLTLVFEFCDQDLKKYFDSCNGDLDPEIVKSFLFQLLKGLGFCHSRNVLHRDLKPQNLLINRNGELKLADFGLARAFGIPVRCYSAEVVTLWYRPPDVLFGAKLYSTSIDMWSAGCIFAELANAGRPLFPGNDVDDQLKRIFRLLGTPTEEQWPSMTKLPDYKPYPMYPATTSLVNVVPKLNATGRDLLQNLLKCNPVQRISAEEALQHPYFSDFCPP
T2 sequence (Q15078 99-307 partner limits assumed): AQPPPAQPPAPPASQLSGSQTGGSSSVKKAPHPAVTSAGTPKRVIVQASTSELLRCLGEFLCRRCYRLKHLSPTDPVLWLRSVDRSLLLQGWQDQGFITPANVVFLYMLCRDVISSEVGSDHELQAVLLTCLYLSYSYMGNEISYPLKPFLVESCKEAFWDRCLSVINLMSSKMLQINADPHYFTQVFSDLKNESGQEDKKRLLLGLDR
Sequence of RAF proto-oncogene serine/threonine-protein kinase (Homo sapiens) (P04049 whole entry): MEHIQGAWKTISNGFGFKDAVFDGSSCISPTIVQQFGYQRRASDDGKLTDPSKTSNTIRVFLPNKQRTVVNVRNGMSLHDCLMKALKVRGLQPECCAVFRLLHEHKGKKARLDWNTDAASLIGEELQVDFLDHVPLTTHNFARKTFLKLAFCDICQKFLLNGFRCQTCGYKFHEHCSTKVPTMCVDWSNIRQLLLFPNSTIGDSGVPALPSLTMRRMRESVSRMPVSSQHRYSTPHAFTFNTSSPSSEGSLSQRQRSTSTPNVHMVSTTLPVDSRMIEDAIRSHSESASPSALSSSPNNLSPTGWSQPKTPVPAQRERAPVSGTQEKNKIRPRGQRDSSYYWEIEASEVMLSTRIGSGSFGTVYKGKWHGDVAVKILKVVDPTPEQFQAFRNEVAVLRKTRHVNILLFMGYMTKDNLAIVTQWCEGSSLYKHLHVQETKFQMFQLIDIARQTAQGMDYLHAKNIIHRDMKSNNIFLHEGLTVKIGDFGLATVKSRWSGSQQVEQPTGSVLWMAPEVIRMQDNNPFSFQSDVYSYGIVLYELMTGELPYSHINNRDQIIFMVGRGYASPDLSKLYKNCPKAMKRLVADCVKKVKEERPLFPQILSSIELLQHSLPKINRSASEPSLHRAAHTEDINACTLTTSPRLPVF

Activity [1]: 84%
Activity [2]: 97%
Activity [3]: 81%
Activity [4]: 86%
Activity [7]: 48%
Activity [8]: 97%
Activity [9]: 103%
SMILES: Cc1cc(N/N=C/c2ccncc2)nc2ccccc12
Activity [5]: Toxic
viability at 24 h, 10 µM [6]: 85%
Activity [10]: 50%

Source: ChEMBL document CHEMBL1770059, “Identification of chemicals to inhibit the kinase activity of leucine-rich repeat kinase 2 (LRRK2), a Parkinson's disease-associated protein” (Bioorg Med Chem Lett, 2011)
